assay: Cyclic voltammetry (CV), three-electrode system, glassy carbon working electrode, Ag/AgCl reference electrode; assay type: physicochemical; conditions: 2 mM in potassium hydroxide aqueous solution at pH=14, scan rate 20 mV/s, in V
Text: In the cyclic voltammetry test of the electric pair, the CS Series electrochemical workstation from Wuhan Corrtest Instruments Corp., Ltd. was used to test the electrochemical performance of the organic electric pair with a three-electrode system. The working electrode was a glassy carbon electrode (Tianjin IDA Hengsheng Co.), the reference electrode was a Ag/AgCl electrode, the counter electrode was a platinum electrode, the scan range of the electric pair of positive electrode and negative electrode was −1.0 to 1.0 V, and the scan rate was 20 mV·s^−1.
A 1-[N-(5-carboxybutylacyl)]aminoanthraquinone solution (at a concentration of 2 mM, in a potassium hydroxide aqueous solution at pH=14) was investigated by cyclic voltammetry (CV).
A 1-[N-(6-carboxypentylacyl)]aminoanthraquinone solution (at a concentration of 2 mM, in a potassium hydroxide aqueous solution at pH=14) was investigated by cyclic voltammetry (CV).
A 1-[N-(7-carboxyhexylacyl)]aminoanthraquinone solution (at a concentration of 2 mM, in a potassium hydroxide aqueous solution at pH=14) was investigated by cyclic voltammetry (CV).
A 1-[N-(8-carboxyheptylacyl)]aminoanthraquinone solution (at a concentration of 2 mM, in a potassium hydroxide aqueous solution at pH=14) was investigated by cyclic voltammetry (CV).

| redox peak in CV curve | redox peak in CV curve (more negative) | Molecule |
| --- | --- | --- |
| ~−0.60 | ~−0.65 | O=C(O)CCCCC(=O)Nc1cccc2c1C(=O)c1ccccc1C2=O [1-[N-(5-carboxybutylacyl)]aminoanthraquinone] |
| ~−0.60 | ~−0.66 | O=C(O)CCCCC(=O)Nc1cccc2c1C(=O)c1ccccc1C2=O [1-[N-(6-carboxypentylacyl)]aminoanthraquinone] |
| ~−0.60 | ~−0.67 | 1-[N-(7-carboxyhexylacyl)]aminoanthraquinone |
| ~−0.60 | ~−0.68 | O=C(O)CCCCCCCC(=O)Nc1cccc2c1C(=O)c1ccccc1C2=O [1-[N-(8-carboxyheptylacyl)]aminoanthraquinone] |

Source: US20220073448A1, “METHOD FOR SYNTHESIZING CARBOXY-CONTAINING ANTHRAQUINONE DERIVATIVE, CARBOXY-CONTAINING ANTHRAQUINONE DERIVATIVE PREPARED THEREBY, AND BATTERY SYSTEM COMPRISING SAME” (CHINA SALT JINTAN CO., LTD., priority 2019, published 2022)
